This passage reports IC50 results from patent US20260258050A1, “IMMUNOMODULATOR” (HITGEN INC., priority 2023, published 2026).

The target of assay [1] is T1, Human IL-17A (Homo sapiens, UniProt Q16552).
T1 sequence (Q16552 20-155 limits assumed): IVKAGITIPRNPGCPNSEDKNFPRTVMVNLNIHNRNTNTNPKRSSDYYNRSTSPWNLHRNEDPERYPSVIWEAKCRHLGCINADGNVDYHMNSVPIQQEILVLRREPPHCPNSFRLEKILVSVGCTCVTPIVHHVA
As to the kind of experiment: Inhibition of human IL-17A protein-induced GROα/CXCL1 production in HT-29 cells. It counts as cell-based. More on the design: purchased R&D 317-ILB; host or cells: added exogenously to HT-29 cells. The note with it: 30 ng/mL human IL-17A protein, 48 h, GROα in supernatant by ELISA kit, read-out: Inhibitory IC50 of compounds on HT-29 cell GROα/CXCL1. Here is the method:
Experiment Example 3 Inhibition of Human IL-17A Protein-Induced GROα/CXCL1 Production in HT-29 Cells by Compounds
This assay was conducted to evaluate the ability of the compounds to inhibit human IL-17A protein-induced production of the chemokine growth-regulated oncogene alpha/C-X-C motif chemokine ligand 1 (GROα/CXCL1) in HT-29 cells.
Human colorectal adenocarcinoma epithelial HT-29 cells (Chengdu Zhongyuan Gongchuang Technology Co., Ltd.) were seeded into a 96-well plate at a density of 5×10^4 cells per well and were cultured overnight in an incubator at 37° C.
30 ng/mL of human IL-17A protein (R&D, #317-ILB) was mixed with gradient concentrations of the IL-17A small-molecule inhibitor, or with […] of a positive control IL-17A antibody (R&D, #AF-317-NA). These mixtures were incubated at 37° C. for 1 h and were then added to the plate. The mixtures were co-incubated with the HT-29 cells at 37° C. for 48 h. Thereafter, the level of GROα in the cell culture supernatant was determined using a GROα ELISA kit (Cisbio, #62HCXC1PEG).
The inhibitory activity of each compound was expressed as the half-maximal inhibitory concentration (IC50) for inhibition of GROα/CXCL1 production in HT-29 cells.
A general note: An ELISA detects its analyte on a solid surface through an enzyme-linked reagent.

For assay [2], the target named is T1, Human IL-17A. As to the kind of experiment: IL-17A enzyme-linked immunosorbent assay (competitive ELISA, IL-17A/IL-17Ra receptor-ligand binding). The note with it: human IL-17A coated plate, human IL-17Ra, read-out: IC50, inhibitory activity of compounds on human IL-17A. More on the design: purchased Sino Biological Inc. 12047-H07B. Here is the method: Experimental Example 1 IL-17A Enzyme-Linked Immunosorbent Assay (ELISA)
The inhibitory effects of human IL-17A inhibitors on receptor-ligand binding were quantitatively determined by a competitive enzyme-linked immunosorbent assay (ELISA). The ELISA was performed through the following steps.
Human IL-17A (Sino Biological Inc., Cat #12047-H07B) was diluted with coating buffer (50 mM phosphate-buffered saline (PBS), pH 7.4) to give an IL-17A concentration of 0.2 μg/ml. 100 μL of the resulting solution was added to each well of a 96-well plate, and the plate was incubated at 37° C. for 30 min. In a blank group, 100 100 μL of the coating buffer was added instead of the IL-17A solution.
The plate was washed four times with 10 mM phosphate-buffered saline containing 0.05% Tween-20 (PBST, pH 7.4). 200 μL of PBST was used per well for each wash. After the final wash, the plate was tapped dry on absorbent paper.
Fresh 5% (w/v) skim milk solution was prepared before the experiment. For example, 5 g of skim milk powder (Bio-Rad, 170-6404) was completely dissolved in 100 mL of 10 mM PBST. 200 μL of the 5% (w/v) skim milk solution was added to each well, and the plate was incubated on a shaker at 25° C. for 30 min.
(S4) Preparation of 100× to-be-Tested Compound Solutions
During step (S3), the to-be-tested compound solutions were prepared, respectively. Each powdered compound was dissolved in dimethyl sulfoxide (DMSO) to reach a storage concentration of 10 mM. The to-be-tested compound solutions were then serially diluted four-fold with DMSO to obtain nine storage concentrations ranging from […].
(S6) Pre-incubation of IL-17A with to-be-tested compound solutions
89 μL of PBST and 1 μL of each of the to-be-tested compound solutions were added to each well and mixed. The plate was pre-incubated at 25° C. for 10 min. In the blank group and the control group, 1 μL of DMSO was added instead of the to-be-tested compound solutions.
(S7) Incubation with Human Interleukin-17 Receptor a (IL-17Ra)
10 μL of 16 nM human IL-17Ra (Sino Biological Inc., Cat #10895-H03H) was added, followed by incubation on a shaker at 25° C. for 30 min. The receptor solution was prepared in 10 mM PBST.
(S9) Incubation with Horseradish Peroxidase-Conjugated Antibody
100 μL of mouse anti-Fc tag horseradish peroxidase (HRP)-conjugated antibody (Sino Biological Inc., Cat #10702-MM01T-H) was added to each well. The plate was incubated on a shaker at 25° C. for 30 min. The antibody was diluted with 5% (w/v) skim milk solution at 1:5,000 (v/v).
100 μL of 3,3′,5,5′-tetramethylbenzidine (TMB) substrate solution (BD, Cat #555214) was added to each well. Substrate A and substrate B were freshly mixed at a volume ratio of 1:1 before use. The plate was incubated in the dark at 25° C. for 5-15 min.
(S12) Termination and Detection
The color reaction was terminated by addition of 2.5 M hydrochloric acid (HCl). Absorbance was measured at 450 nm using a BMG PHERStar microplate reader.
(S13) Calculation of Half-Maximal Inhibitory Concentration (IC50)
The relative percent residual activity at each compound concentration was calculated according to Equation 1. The IC50 value of each test compound was then calculated in GraphPad 6 using the equation for log(inhibitor) versus normalized response with variable slope, as shown in Equation 2.
relative percent residual activity (%)=[(absorbance of sample−absorbance of blank group)/(absorbance of control group−absorbance of blank group)]%. Equation 1: […]
The compounds prepared in the above examples were tested for IL-17A inhibitory activity according to the above method.

SMILES strings stand for the structures. pIC50: −log10 of the molar value.

`Cc1[nH]nc2c1-c1cc(F)c(NC(=O)[C@@H](NC(=O)c3ccnn3C(C)C)C(C3CC3)C3CC3)cc1C(=O)NC(C)C2` (single isomer, unassigned) [compound 187b]: the pIC50 at Human IL-17A [1] is at least 7.00. Same read-out and setting: to `Cc1c2c(nn1COCC[Si](C)(C)C)CC(=O)N(Cc1ccccc1)Cc1cc(N)c(F)cc1-2` [compound 183] belongs 6.30 to 7.00. In the case of `CCC(C)n1nccc1C(=O)N[C@H](C(=O)Nc1cc2c(cc1F)-c1c(n[nH]c1C)CCOC2)C(C1CC1)C1CC1` (single isomer, unassigned) [compound 123a], the pIC50 is at least 7.30 on Human IL-17A [2] and 6.30 to 7.00 on Human IL-17A [1].

For `CCC1Cc2n[nH]c(C)c2-c2cc(F)c(NC(=O)[C@@H](NC(=O)c3ccnn3C(C)C)C(C3CC3)C3CC3)cc2CO1` (single isomer, unassigned) [compound 120a], the pIC50 at Human IL-17A [2] was 6.82 to 7.30; on Human IL-17A [1], 6.30 to 7.00.

`Cc1[nH]nc2c1-c1cc(F)c(NC(=O)[C@@H](NC(=O)c3ccnn3CCCF)C(C3CC3)C3CC3)cc1CN(CC(F)F)CC2` [compound 181]: the pIC50 is at least 7.30 on Human IL-17A [2] and at least 7.00 on Human IL-17A [1]. On the same counts, the results for `Cc1[nH]nc2c1-c1cc(F)c(NC(=O)[C@@H](NC(=O)c3conc3C(C)C)C(C3CC3)C3CC3)cc1CN(CC(F)F)C(=O)C2` [compound 171] are at least 7.30 and at least 7.00. For `Cc1[nH]nc2c1-c1cc(F)c(NC(=O)[C@@H](NC(=O)c3ccnn3C(C)C)C(C3CC3)C3CC3)cc1CN(CC(F)F)C(C)C2` (mixture of isomers) [compound 178] the same measures were at least 7.30 and at least 7.00. As to `Cc1[nH]nc2c1-c1cnc(NC(=O)[C@@H](NC(=O)c3ccnn3C3CC3)C(C3CC3)C3CC3)cc1CN(C1CC1)CC2` [compound 219], the pIC50 was at least 7.30 at Human IL-17A [2] and at least 7.00 at Human IL-17A [1]. For `CCC1Cc2n[nH]c(C)c2-c2cc(F)c(NC(=O)[C@@H](NC(=O)c3ccnn3C(C)C)C(C3CC3)C3CC3)cc2CO1` (single isomer, unassigned) [compound 120b] the same measures were at least 7.30 and 6.30 to 7.00. As for `Cc1[nH]nc2c1-c1cnc(NC(=O)[C@@H](NC(=O)c3ccnn3C(C)C(F)F)C(C3CC3)C3CC3)cc1COCC2` (single isomer, unassigned) [compound 190a], the pIC50 at Human IL-17A [2] is at least 7.30; on Human IL-17A [1], 6.30 to 7.00. In the case of `Cc1[nH]nc2c1-c1cc(F)c(NC(=O)[C@@H](NC(=O)c3ccnn3CCCN3CCOCC3)C(C3CC3)C3CC3)cc1COCC2` [compound 92], the pIC50 was at least 7.30 at Human IL-17A [2] and at least 7.00 on Human IL-17A [1]. As to `Cc1[nH]nc2c1-c1cc(F)c(NC(=O)[C@@H](NC(=O)c3ccnn3CCCF)C(C3CC3)C3CC3)cc1CN(CC(F)F)C(=O)C2` [compound 172], the pIC50 at Human IL-17A [2] is at least 7.30; on Human IL-17A [1], at least 7.00. Consider `C=C(F)C(=O)N[C@H](C(=O)Nc1cc2c(cc1F)-c1c(n[nH]c1C)CCOC2)C(C1CC1)C1CC1` [compound 233], for which the values for the pIC50 on Human IL-17A [2] and at Human IL-17A [1] were at least 7.30 and at least 7.00, respectively. Take `Cc1[nH]nc2c1-c1cc(F)c(NC(=O)[C@@H](NC(=O)c3ccnn3CC3(F)CC3)C(C3CC3)C3CC3)cc1COCC2` [compound 79]: the pIC50 at Human IL-17A [2] was 6.82 to 7.30; on Human IL-17A [1], 6.30 to 7.00.

In the case of `Cc1[nH]nc2c1-c1cnc(NC(=O)[C@@H](NC(=O)c3ccnn3C(C)C(F)F)C(C3CC3)C3CC3)cc1COCC2` (single isomer, unassigned) [compound 190b], the pIC50 is 6.82 to 7.30 on Human IL-17A [2] and 6.30 to 7.00 at Human IL-17A [1]. As to `CC(C)=C(F)C(=O)N[C@H](C(=O)Nc1cc2c(cc1F)-c1c(n[nH]c1C)CCOC2)C(C1CC1)C1CC1` [compound 232], the pIC50 at Human IL-17A [2] is at least 7.30; on Human IL-17A [1], at least 7.00. `Cc1[nH]nc2c1-c1cc(F)c(NC(=O)[C@@H](NC(=O)c3ccnn3C(C)C)C(C3CC3)C3CC3)cc1C(=O)NC(C)C2` (single isomer, unassigned) [compound 187a]: the pIC50 at Human IL-17A [1] was at least 7.00. Regarding `CCC(C)n1nccc1C(=O)N[C@H](C(=O)Nc1cc2c(cc1F)-c1c(n[nH]c1C)CCOC2)C(C1CC1)C1CC1` (single isomer, unassigned) [compound 123b], the pIC50 at Human IL-17A [2] is at least 7.30; at Human IL-17A [1] it was 6.30 to 7.00.

`C=C(F)C(=O)N[C@H](C(=O)Nc1cc2c(cn1)-c1c(n[nH]c1C)CCOC2)C(C1CC1)C1CC1` [compound 245]: the pIC50 at Human IL-17A [2] is at least 7.30; at Human IL-17A [1] it was at least 7.00.

As for `CSCC(C)n1nccc1C(=O)N[C@H](C(=O)Nc1cc2c(cc1F)-c1c(n[nH]c1C)CCOC2)C(C1CC1)C1CC1` (single isomer, unassigned) [compound 40b], the pIC50 at Human IL-17A [2] is at least 7.30; at Human IL-17A [1], 6.30 to 7.00. `CCn1nccc1C(=O)N[C@H](C(=O)Nc1cc2c(cn1)-c1c(n[nH]c1C)CCOC2)C(C1CC1)C1CC1` [compound 53]: the pIC50 on Human IL-17A [2] was at least 7.30; at Human IL-17A [1] it was 6.30 to 7.00. For `Cc1[nH]nc2c1-c1cc(F)c(NC(=O)[C@@H](NC(=O)c3ccnn3CC3CC(F)(F)C3)C(C3CC3)C3CC3)cc1COCC2` [compound 64] the same measures were at least 7.30 and 6.30 to 7.00. On the same counts, the results for `CC(C)=C(F)C(=O)N[C@H](C(=O)Nc1cc2c(cn1)-c1c(n[nH]c1C)CCOC2)C(C1CC1)C1CC1` [compound 244] are at least 7.30 and at least 7.00. As to `Cc1[nH]nc2c1-c1cc(F)c(NC(=O)[C@@H](NC(=O)c3ccnn3C(C)C)C(C3CC3)C3CC3)cc1CCCC2` [compound 130], the pIC50 at Human IL-17A [2] was at least 7.30; on Human IL-17A [1], 6.30 to 7.00. On the same counts, the results for `CSCC(C)n1nccc1C(=O)N[C@H](C(=O)Nc1cc2c(cc1F)-c1c(n[nH]c1C)CCOC2)C(C1CC1)C1CC1` (single isomer, unassigned) [compound 40a] are 6.82 to 7.30 and 6.30 to 7.00. On the same counts, the results for `Cc1[nH]nc2c1-c1cc(F)c(NC(=O)[C@@H](NC(=O)c3ccnn3C(C)C)C(C3CC3)C3CC3)cc1CN(C1CCC(F)(F)CC1)CC2` [compound 175] are at least 7.30 and at least 7.00.
